Data reported in patent US12697316B2, “Combination therapy with acetyl-leucine and miglustat” (INTRABIO LTD., priority 2019, dated 2026).

What was measured:
[1] = system: GM2 gangliosidosis patients; experiment: Observational case series in GM2 gangliosidosis patients; assay type: in vivo, human; details: three GM2 gangliosidosis patients
Experimental: Observational studies in GM2 gangliosidosis Patients: In a prospective observational case series in three patients with genetically proven GM2 gangliosidoses (2 patients with Tay-Sachs disease, 1 patient with Sandhoff disease) the symptomatic effects of ADLL was evaluated. Patients were treated with 0.1 g per kg body weight per day, for at least four weeks and the clinical effects determined using the Scale for the Assessment and Severity of Ataxia (SARA), the 8-meter walk test (8MWT) and the Montreal Cognitive Assessment (MoCA). Consent from all participants was obtained.
A patient with a genetically confirmed diagnosis of Tay-Sachs disease presented with dysarthrophonia, tremor, ataxia of stance and gait, paraparesis, and muscular atrophy. Prior to treatment, the patient required the support of both a caregiver on one side and a wall on the other in order to walk down a corridor. The patient was receiving sodium-valproate (500 mg/d), lithium (450 mg/d), and risperidone (3 mg/d) (medications for clinically diagnosed bipolar disorder), and continued to do so during treatment with N-Acetyl-DL-Leucine. The patient was also receiving physiotherapy, ergotherapy, and logotherapy twice a week.
A patient with a genetically confirmed diagnosis of Tay-Sachs disease presented with ataxia of stance and gait, fine motor impairment, paraparesis of lower extremities and muscular atrophy. They were receiving physiotherapy, ergotherapy and logotherapy and continued to do so during treatment with N-Acetyl-DL-Leucine.
A patient suffering from Sandhoff disease, with muscle hypotrophy, epileptic cramps (tonic-clonic, about 10 seconds, self-limiting), disordered ocular movement and anarthria. Their daily activities were very limited, being unable to eat, wash, or dress themself. They were receiving levetiracetam (1 g/d), lamotrigine (100 mg/d), omeprazole (20 mg/d), and miglustat (300 mg/d), in addition to physiotherapy, ergotherapy and logotherapy, and continued to do so during treatment with N-Acetyl-DL-Leucine.

[2] = system: Sandhoff (Hexb^−/−) mice; experiment: Survival of Sandhoff (Hexb−/−) mice; assay type: in vivo, mouse; details: Hexb−/− mice treated from weaning, 0.1 g/kg/day
Experimental: BALBc/NPC ^h and Sandhoff mice were bred as heterozygotes to generate affected mice (Npc1^−/−, Hexb^−/−) and controls (Npc^+/+, Hexb^+/+). The mice were housed under non-sterile conditions, with food and water available ad libitum. All experiments were conducted using protocols approved by the UK Home Office Animal Scientific Procedures Act, 1986.
[…] Treatment groups for in vivo study consisted of at least 5 mice per group. In vitro studies were conducted with each compound dissolved in PBS to generate a 50 mM stock solution and diluted to a 1 mM working concentration in media (DMEM High Glucose-Gibco #10566016).
The weight and activity of each mouse was recorded weekly until reaching the humane endpoint (defined as a loss of 1 g body weight within 24 h). Gait analysis was performed using CatWalk 10.5 system (Noldus) according to the manufacturer's instructions and five runs were recorded per animal at each time point. The camera was set to 40 cm below the walkway, the walkway was approximately 4 cm wide, and detection settings set to camera gain 14.05 and green intensity 0.12. Motor function was measured using an accelerating NG Rota Rod for mice (Ugo Basile) starting from 1 rpm to 10 rpm, accelerating every 30 seconds by one rpm. […] Latency to cross or fall from the bar was scored, with 120 sec, maximum, to termination of each trial. […]

[3] = 0.1 g per kg body weight per day, baseline vs one month on medication

SMILES: CC(=O)NC(CC(C)C)C(=O)O (racemic) [ADLL, N-acetyl-DL-leucine]
- improvement reported by patients and caregivers [1]: subjective improvement
- mean improvement of the 8-M-Walking-Test (8MWT) [1, 3]: 17.8%
- mean improvement of the Montreal Cognitive Assessment (MoCA) [1, 3]: 42%
- mean improvement of the Scale for Assessment and Rating of Ataxia (SARA) [1, 3]: 20.3%
- median increase in lifespan [2]: 8 days
